Results from US8987449B2, “Medicine for treating ischemic brain injury and its sequelae, and preparation method thereof” (Haimin Lei, priority 2011, dated 2015).

How the values were obtained:
SOD = SOD of MCAO rats (brain homogenate, kit); format: in vivo, rat; details: model group 40.28 ± 7.51
Experimental: 10% chloral hydrate 0.35 g/kg was injected into the abdominal cavity of a rat to anesthetize thereof. The rat was fixed as supine position. The skin was disinfected thereof by 75% medical alcohol. It was cut right in the middle of the neck. The right common carotid artery, internal carotid artery and external carotid artery were separated and the common carotid artery and external carotid artery were ligated. The internal carotid artery was clamped with a bulldog clamp. A cut was made at the crotch of the external carotid artery and the internal carotid artery followed by releasing the bulldog clamp. The nylon wire (diameter 0.25 mm, marked at a distance of 18 mm from the head end) was inserted into the cut and the insertion was stopped when some resistance was felt. The insert depth was a little longer than 18 mm to achieve the cerebral ischemia caused by middle cerebral artery occlusion. The internal carotid artery was ligated and the nylon wire was fixed. The muscle and skin were sutured layer by layer. In sham operation group, the right common carotid artery, the external carotid artery and the internal carotid artery were only exposed and separated. The rats were conventionally raised in different cages regularly. 0.5 ml penicillin was continuously injected into every rat for three days after the surgery.
The rats were divided into 7 groups in the experiment, that is, sham operation group, model group, Nimodipine group, LQC-T4 large dosage group, LQC-T4 small dosage group, TMP group, and TMP+Vanillic acid group. The model rats getting 1 point were distributed randomly into the model group and other administration group, while the rats getting 2 point and 3 point were distributed randomly into above 6 groups according the above method and sham operation group was not involved in the above grouping. 0.5% CMC-NA (1 ml·100 g^−1) was administrated intragastrically to the blank control group and the model group, two dosage group of 120 mg·kg^−1, 60 mg·kg^−1 were administrated intragastrically to the LQC-T4 (1 ml·100 g^−1) group, and 74 mg·kg^−1 TMP+46 mg·kg^−1 vanillitc acid (1 ml·100 g^−1) were administrated intragastrically, once per day continuously for 10 days.
10% chloral hydrate 0.35 g/kg was injected into the abdominal cavity to anesthetize them after the rats were administrated for 10 days. The head was cut and the brain was taken. The cranial bones were stripped, the meninges were peeled off to separate the ischemia side of the brain, the blood streak was striped and then the brain was weighed. 4 times amount of 0.9 physiological saline was added and the brain was homogenized in 0° C. ice bath. […]
It was detected with 722 type visible spectrophotometer according to the kit operation. […]

ICR mice = assay: Buccal respiration duration of mice after head cutting (4° C. icy water swimming model); format: in vivo, mouse; details: control 32.45 ± 5.49
Experimental: ICR mice, half female and half male, weighing 19-21 g, certificate No.: SCXK (Jing) 2006-0009, provided by BeiJing Vital River Laboratories.
LQC-T4, tetramethylpyrazine (TMP), vanillic acid, Nimodipine (ShanDong XinHua Pharmaceutical CO., Ltd, batch No.: 0908164)
160 male ICR mice were divided into 8 groups randomly by weight, each of which contained 20 mice, wherein 0.5% CMC-NA (0.2 ml·10 g^−1) was administrated intragastrically to the blank control group; 6.7 mg·kg^−1 Nimodipine (0.2 ml·10 g^−1) was administrated intragastrically to the positive control group; 100 mg·kg^−1 TMP (0.2 ml·10 g^−1) was administrated intragastrically to the TMP group, three different dosage of 200 mg·kg^−1, 100 mg·kg^−1, 50 mg·kg^−1 were administrated intragastrically to the LQC-T4 (0.2 ml·10 g^−1) group relatively, and 125 mg·kg^−1 TMP+80 mg·kg^−1 vanillitc acid (0.2 ml·10 g^−1) was administrated intragastrically respectively. The medicines were continuously administrated once a day for 10 days.
The literature was referred to: [LiuZhenquan, SunHui, Xuqiuping, etc., Experimental Study on the Brain-Protective Effect of the Effective Fraction of Naoxin Formula in the Mouse Model of with Load-Bearing Swimming in Cold Water, Journal of Beijing University of Traditional Chinese Medicine [J], 2004, 27(4): 54-56] and the method recorded therein was improved. The head was rapidly cut with a scissor at post mortem when the mouse swam in 4° C. icy water for 3 min after the final administration. After head being cut, the buccal respiration duration of mouse was recorded.
The SAS 8.2 statistical software was used to carry out the one-way ANOVA variance analysis and the difference among the groups were compared by t-test.

MCAO rats = assay: Beam walking test of MCAO rats; format: in vivo, rat; details: 0-6 points; for beam walking Evaluation (3 d): model group 1.47 ± 0.84; for beam walking Evaluation (7 d): model group 1.92 ± 2.02
Source text: 140 healthy SD male rats, weighing 280-300 g, provided by Beijing Vital River Laboratories, certificate No.: SCXK (Jing) 2002-2003. The method of [Koizumi J, Yoshida […]. Experimental studies of ischemia brain edema, I: A new experimental model of cerebral embolism in rats in which recirculation can be introduced in the ischemic area[J]. […] After the rats were anesthetized and the skin thereof was disinfected by ethanol. By cutting right in the middle of the neck, the right common carotid artery, internal carotid artery and external carotid artery were separated and the common carotid artery and external carotid artery were ligated. The internal carotid artery was clamped with a bulldog clamp. A cut was made at the crotch of the external carotid artery and the internal carotid artery followed by releasing the bulldog clamp. […] Next, the external carotid artery was ligated and the nylon wire was fixed. In sham operation group, the right common carotid artery, the external carotid artery and the internal carotid artery were only exposed and separated. The rats were routinely raised in different cages. 0.5 ml penicillin was continuously injected into every mouse for three days after the surgery. […] The rats getting 1-3 point were selected for the subsequent experiment. The MCAO rats having the same point were distributed randomly and averagely to each experimental group. […] Beam walking test was used to evaluate the motor coordination and the integration defect after the cerebral ischemia damage. […] There was a dark box attached to one end of the beam and the rats were stimulated by noise to walk through the beam into the dark box. […] The rats were trained before the ischemia for 5 days until all the rats can get 6 point. The third and the seventh days after administration was set as the observation time to carry out the test. The SPSS 11.0 software pack was used to carry out the statistical analysis of all the data. The comparison of the enumeration data was carried out with X^2 test P<0.05 had statistical meaning.

[1] = 60 mg/kg intragastrically once a day
[2] = 120 mg/kg intragastrically once a day

Question: Which SOD (SOD; 60 mg/kg intragastrically once per day for 10 days) does the source give for `COc1cc(C(=O)OCc2nc(C)c(C)nc2C)ccc1OCc1nc(C)c(C)nc1C` [LQC-T4, (3,5,6-trimethylpyrazine-2-yl)methyl 3-methoxy-4-((3,5,6-trimethylpyrazine-2-yl)methoxy) benzoate] here?
Answer: Its SOD is 75.29 ± 30.08.

Question: What about the SOD (SOD; 120 mg/kg intragastrically once per day for 10 days) of the same compound?
Answer: Its SOD is 85.03 ± 56.03.

Question: And the “respiration duration” value (ICR mice; 50 mg/kg intragastrically once a day for 10 days)?
Answer: The value was 36.78 ± 5.40 s.

Question: And the “respiration duration” value (ICR mice; 100 mg/kg intragastrically once a day for 10 days)?
Answer: The value was 36.07 ± 3.15 s.

Question: And the “respiration duration” value (ICR mice; 200 mg/kg intragastrically once a day for 10 days)?
Answer: Its value is 35.91 ± 4.25 s.

Question: What about the “beam walking Evaluation (3 d)” value (MCAO rats; [1]) of the same compound?
Answer: The value was 3.6 ± 1.76.

Question: And the “beam walking Evaluation (7 d)” value (MCAO rats; [1])?
Answer: Its value is 3.83 ± 1.70.

Question: And the “beam walking Evaluation (3 d)” value (MCAO rats; [2])?
Answer: Its value is 2.88 ± 1.62.

Question: And the “beam walking Evaluation (7 d)” value (MCAO rats; [2])?
Answer: Its value is 3.20 ± 1.66.

Question: Which SOD (SOD; 30 mg/kg once per day for 10 days) does the source give for `COCCOC(=O)C1=C(C)NC(C)=C(C(=O)OC(C)C)C1c1cccc([N+](=O)[O-])c1` (centres unmarked) [Nimodipine, reference compound] here?
Answer: Its SOD is 79.85 ± 36.57.

Question: And the “respiration duration” value (ICR mice; 6.7 mg/kg intragastrically once a day for 10 days)?
Answer: Its value is 37.23 ± 5.37 s.

Question: What about the “beam walking Evaluation (3 d)” value (MCAO rats; 30 mg/kg once a day) of the same compound?
Answer: The value was 2.71 ± 1.49.

Question: And the “beam walking Evaluation (7 d)” value (MCAO rats; 30 mg/kg once a day)?
Answer: The value was 3.50 ± 1.71.

Question: `Cc1nc(C)c(C)nc1C` [TMP, tetramethylpyrazine, reference compound] was tested. Which SOD (SOD; 37 mg/kg once per day for 10 days) did it give?
Answer: Its SOD is 61.58 ± 16.23.

Question: And the “respiration duration” value (ICR mice; 125 mg/kg intragastrically once a day for 10 days)?
Answer: Its value is 37.26 ± 5.99 s.

Question: And the “beam walking Evaluation (3 d)” value (MCAO rats; 37 mg/kg once a day)?
Answer: The value was 2.86 ± 1.79.

Question: What about the “beam walking Evaluation (7 d)” value (MCAO rats; 37 mg/kg once a day) of the same compound?
Answer: The value was 2.40 ± 2.32.
